Results as given in PubChem BioAssay AID2743 (NMMLSC, 2010).
Several values for one entry are separate records, joined by “and”; a condition that tells them apart may be missing. Identical values can stand only once. Activity calls are given as the source filed them.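 Rule for the calls: active = fitted half-maximal concentration for change in GFP expression of 33 µM or less; inactive = the rest.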

test: potency of AGP1-GFP expression modulators in yeast, dose response, cell-based, flow cytometry, S. cerevisiae, MLPCN hits (AID 2743); conditions: S. cerevisiae AGP1-GFP strain, flow cytometry GFP, 3 h; at 33 µM (top of the series)

Compound | GFP fluorescence (kMESF)
COc1cc(/C=C2\C(=O)ON=C2c2ccccc2)cc(OC)c1OC | 32.3 kMESF (inactive)
Cc1cc(C)c(S(=O)(=O)ON2C(=O)c3ccccc3C2=O)cc1C | 42.8 kMESF (inactive)
CCOC(=O)C1=C(O)c2ccccc2C(=O)/C1=C\c1ccc(C)cc1 | -4.85 kMESF (inactive)
C=CCOc1ccccc1C(=O)/C=C1/C(=O)Nc2ccccc21 | 43.2 kMESF (inactive)
O=C(OCn1ncc(Br)c(Br)c1=O)c1ccc(F)cc1 | 43.7 kMESF (inactive)
O=C(CSC1=NS(=O)(=O)c2ccccc21)Nc1ccccc1 | 27.1 kMESF (inactive)
Oc1c(Br)cc(Br)cc1C=Nc1ccc2c(c1)OCO2 | 42.9 kMESF (inactive)
COc1ccc(OC)c(S(=O)(=O)ON2C(=O)c3ccccc3C2=O)c1 | 39.4 kMESF (inactive)
O=C(NOC(=O)c1ccccc1)c1ccccc1 | 25.9 kMESF (inactive)
Cc1ccc(S(=O)(=O)c2ccc([N+](=O)[O-])cn2)cc1 | 40.7 kMESF (inactive)
O=C1N(c2ccccc2C(F)(F)F)O[C@]1(c1ccccc1)C1CCCCC1 | 34.3 kMESF (inactive)
CCCOc1ccc(C(=O)NNC(=S)NC(=O)c2ccccc2)cc1 | 45.1 kMESF (inactive)
Cc1cc(O)c(C(=O)/C=C/c2c(F)c(F)c(F)c(F)c2F)c(=O)o1 | 21.2 kMESF (inactive)
O=c1c(-c2ccc(Cl)cc2)[n+]([O-])c2ccccc2n1O | 38.1 kMESF (inactive)
O=C1C=C(c2ccc(Cl)cc2)C(=O)N1Nc1ccccc1 | 24.4 kMESF (inactive)
Cc1c(Cc2ccccc2)c(NCCN(C)C)n2c(nc3ccccc32)c1C#N | 45.4 kMESF (inactive)
On1ccccc1=S | 35.2 kMESF (inactive)
O=[N+]([O-])c1cc(O)c2ncccc2c1 | 42.7 kMESF (inactive)
Cc1sc(/C=C2\C(=O)ON=C2c2ccccc2)cc1Br | 34 kMESF (inactive)
COc1ccccc1NC1=C(Cl)C(=O)N(c2ccccc2)C1=O | 33 kMESF (inactive)
Cc1ccc(C2=NN(S(C)(=O)=O)C(c3ccc4c(c3)OCO4)C2)cc1 (centres undefined) | 44.1 kMESF (inactive)
Cc1[nH][nH]c(=O)c1C(c1ccc(-c2ccc(Cl)cc2)o1)c1c(C)[nH][nH]c1=O | 39.2 kMESF (inactive)

Compound | GFP fluorescence (kMESF)
COc1cc(N2C(=O)C=CC2=O)c(OC)cc1Cl | 33.8 kMESF (inactive)
O=C(Nc1ccc(Cl)cc1Cl)c1cccc(N2C(=O)C=CC2=O)c1 | 41.1 kMESF (inactive)
Cc1cccc(Nc2nc(-c3ccccn3)cs2)n1 | 30.1 kMESF (inactive)
COc1ccc(N2C(=O)/C(=C/c3cccs3)C(=O)NC2=S)cc1 | 27.3 kMESF (inactive)
C#CCOCCOCCOCCNc1nc(N2CCN(C(=O)CCCCCCCCCCNC(=O)[C@H](CCCCN)n3cc(CCO)nn3)CC2)nc(N2CCN(C(=O)CCCCCCCCCCNC(=O)[C@H](CCCN=C(N)N)n3cc(C[C@@H](C)CC)nn3)CC2)n1 | 45.1 kMESF (inactive)
CCCc1cc(N2CCN(c3ccccn3)CC2)n2nc(C)c(-c3ccccc3)c2n1 | 38.8 kMESF (inactive)
O=C1c2cccc3c([N+](=O)[O-])ccc(c23)C(=O)N1CCc1ccccn1 | 44.1 kMESF (inactive)
O=C(CCc1ccccc1)NNC(=S)NC(=O)c1ccccc1 | 50.8 kMESF (inactive)
Clc1cnc(N/N=C/c2cccs2)c(Cl)c1 | 40.5 kMESF (inactive)
CCOc1ccccc1/C=c1\sc2ncnn2c1=O | 39.5 kMESF (inactive)
Oc1c(I)cc(Cl)c2cccnc12 | 25 kMESF (inactive)
CN(C)C(=O)Oc1ccnc2cc(Cl)ccc12 | 42.3 kMESF (inactive)
CC[C@]1(c2ccccc2OC)ON(c2ccccc2C(F)(F)F)C1=O | 32.6 kMESF (inactive)
O=S(=O)(CCN(CCS(=O)(=O)C(F)(F)F)CC1CCCO1)C(F)(F)F (centres undefined) | 35.8 kMESF (inactive)
O=C(COc1ccc(F)cc1Cl)Nc1nc(-c2ccccn2)cs1 | 33.9 kMESF (inactive)
Cc1ccc(/C=N/Nc2ncc(Cl)cc2Cl)s1 | 35.6 kMESF (inactive)
CS(=O)(=O)c1sc(C#N)c2c1C(=O)CC(c1ccccc1)C2 (centres undefined) | 38.9 kMESF (inactive)
CC(c1ccccc1)N1C(=O)/C(=C/c2ccncc2)SC1=S (centres undefined) | 24.4 kMESF (inactive)
Cc1ccc(-c2nn(C(C)(C)C)c3ncnc(N)c23)cc1 | 40.2 kMESF (inactive)
N=C1S/C(=C\c2ccco2)C(=O)N1c1nccs1 | 40.4 kMESF (inactive)
CN(Cc1cnc2nc(N)nc(N)c2n1)c1ccc(C(=O)N[C@@H](CCC(=O)O)C(=O)O)cc1 | 45.5 kMESF (inactive) and 51.9 kMESF (inactive)
Cc1ccc(/C=C2\SC(=S)N(CC3CCCO3)C2=O)o1 (centres undefined) | 42 kMESF (inactive)

Compound | GFP fluorescence (kMESF)
COc1cccc(C(=O)Nc2nnc(-c3ccc(Cl)cc3)o2)c1 | 34.6 kMESF (inactive)
CCCCC1OC23CCCCC2C(C#N)(C(=N)O3)C1(C#N)C#N (centres undefined) | 43.3 kMESF (inactive)
O=C(O)c1ccccc1SC1CC(=O)N(c2ccc3c(c2)OCO3)C1=O (centres undefined) | 47.9 kMESF (inactive)
N#Cc1nccnc1S(=O)(=O)c1cccs1 | 38.7 kMESF (inactive)
Cc1ccc(/C=C/C(=O)c2ccc([N+](=O)[O-])o2)cc1 | 42.9 kMESF (inactive)
O=S(=O)(/N=C(/Sc1ccccc1)c1ccccc1)c1ccccc1 | 41 kMESF (inactive)
O=C(COc1ccccc1)NNC(=S)NC(=O)c1ccc(Cl)cc1Cl | 29.9 kMESF (inactive)
N/C(=N\OC(=O)c1cc(Br)ccc1Cl)c1ccccn1 | 31.3 kMESF (inactive)
O=[N+]([O-])c1ccc(S(=O)(=O)c2cccc(C(F)(F)F)c2)nc1 | 37.7 kMESF (inactive)
O=C(NC(=S)NNC(=O)c1ccc(Cl)cc1Cl)c1cccnc1 | 26.1 kMESF (inactive)
CC(C)(C)c1nnc(N/N=C/c2cc(Br)ccc2O)n(N)c1=O | 34.2 kMESF (inactive)
CCCOc1ccc(C(=O)NNC(=S)NC(=O)c2ccco2)cc1 | 50.3 kMESF (inactive)
O=[N+]([O-])c1cc(CN2CCN(c3cccc(C(F)(F)F)c3)CC2)c2cccnc2c1O | 32.2 kMESF (inactive)
CC(OC(=O)c1ccco1)C(=O)Nc1nc(-c2ccccc2)cs1 (centres undefined) | 40.9 kMESF (inactive)
C#CCOCCOCCOCCNc1nc(N2CCN(C(=O)CCCCCCCCCCNC(=O)[C@H](CCCCN)n3cc(CCO)nn3)CC2)nc(N2CCN(C(=O)CCCCCCCCCCNC(=O)[C@H](CCCCN)n3cc(C[C@@H](C)CC)nn3)CC2)n1 | 51.4 kMESF (inactive)
Cc1ccccc1C(=O)NNC(=S)NC(=O)c1ccc(Cl)cc1Cl | 40.9 kMESF (inactive)
O=C(c1ccc([N+](=O)[O-])o1)N1CCN(c2nc3c(F)cc(F)cc3s2)CC1 | 30.3 kMESF (inactive)
Cc1cc(/C=C2/SC(=S)N(c3cccc(Cl)c3)C2=O)c(C)n1-c1cccnc1 | 46.4 kMESF (inactive)
Cc1nn(C)c(C)c1N1C(=O)c2cccc3c(Br)ccc(c23)C1=O | 40.8 kMESF (inactive)
Oc1ccc(COCc2ccccc2)c2cccnc12 | 36.3 kMESF (inactive)
